Like-named read-outs stand apart in the source and are kept apart here.
How the values were obtained:
[1] = test system: HIV-1 (HIV-1 RF, HIV-1 NL4-3) in CEM-SS / MT-2 cells; assay: Cytopathic effect (CPE) inhibition assay (XTT/MTT dye reduction); format: cell-based
Experimental: T-cell lines, CEM-SS, and MT-2, and viruses HIV-1 RF and HIV-1 NL4-3 (pNL4-3) were obtained from the National Institutes of Health (AIDS Research and Reference Reagent Program, Bethesda, Md.).
Cytopathic Effect (CPE) Inhibition Assays
The ability of compounds to protect cells against HIV infection was measured by the […] dye reduction method, essentially as described (See Pauwels, R. Balzarini, J. Baba, M. Snoeck, R. Schols, D. Herdewijn, P. Desmyter, J. and De Clercq, E. 1988, “Rapid and automated tetrazolium-based colorimetric assay for the detection of anti-HIV compounds,”. J Virol. Methods., 20: 309–321 and Weislow, O. S. Kiser, R. Fine, D. L. Bader, J. Shoemaker, R. H. and Boyd, M. R. 1989. “New soluble-formazan assay for HIV-1 cytopathic effects: application to high-flux screening of synthetic and natural products for AIDS-antiviral activity”. J. Natl. Cancer Inst. 81:577–586). Subject cells were infected with test virus at an moi of 0.025 to 0.819 or mock infected with medium only and added at 2×10^4 cells per well into 96 well plates containing half-log dilutions of test compounds. Six days later, 50 μl of XTT (1 mg/ml XTT tetrazolium, 0.02 nM phenazine methosulfate) was added to the wells and the plate was reincubated for four hours. Viability, as determined by the amount of XTT formazan produced, was quantified spectrophotometrically by absorbance at 450 nm. Data from CPE assays were expressed as the percent of formazan produced in compound-treated cells compared to formazan produced in wells of uninfected, compound-free cells. The fifty percent effective concentration (EC50) was calculated as the concentration of compound that effected an increase in the percentage of formazan production in infected, compound-treated cells to 50% of that produced by uninfected, compound-free cells. The 50% cytotoxicity concentration (CC50) was calculated as the concentration of compound that decreased the percentage of formazan produced in uninfected, compound-treated cells to 50% of that produced in uninfected, compound-free cells. The therapeutic index was calculated by dividing the cytotoxicity (CC50) by the antiviral activity (EC50).

[2] = biological target: T1, HIV-1 protease (Q7S mutant form) (Human immunodeficiency virus type 1 group M subtype B, UniProt P04585, Q495S); assay: HIV-1 Protease RET assay; format: biochemical
T1 construct: made in house
In short: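 Q7S HIV-1 protease, refolded from urea, 2 nM active dimer with 5 μM EDANS/DABCYL peptide cleaved at Tyr-Pro; fluorescence 340/490 nm. 12 min at 37 °C in 0.1M sodium acetate pH 4.8, 1M NaCl, 10% DMSO. Ki from Morrison tight-binding fit.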

[3] = Human immunodeficiency virus 1, NL43, unit inferred, read-out: EC50

| Structure (SMILES) | EC50 [1, 3] | Ki ([2]; Ki, unit inferred) | EC50 ([1]; Human immunodeficiency virus 1, NL43, read-out: Ave CPE EC50) | Ki ([2]; Ave. Ki (nM), RET assay, Q7S enzyme, Morrison tight binding fit) |
| --- | --- | --- | --- | --- |
| Cc1ccccc1CNC(=O)[C@H]1N(C(=O)[C@@H](O)[C@H](Cc2ccccc2)NC(=O)[C@@H](NC(=O)COc2cccc(N(C)C)c2)C(C)C)CSC1(C)C | 0.014 µM | ≤ 0.1 nM |  |  |
| Cc1ccccc1CNC(=O)[C@@H]1N(C(=O)[C@@H](O)[C@H](Cc2ccccc2)NC(=O)c2cccc(O)c2C)CSC12CCCC2 | 0.04 µM | 0.34 nM |  |  |
| C=CCNC(=O)[C@H]1N(C(=O)[C@@H](O)[C@H](Cc2ccccc2)NC(=O)[C@@H](NC(=O)c2ccc3ccccc3n2)C(C)C)CSC1(C)C | 0.041 µM | ≤ 0.1 nM |  |  |
| Cc1ccccc1CNC(=O)[C@H]1N(C(=O)[C@@H](O)[C@H](Cc2ccccc2)NC(=O)[C@@H](NC(=O)c2ccccn2)C(C)C)CSC1(C)C | 0.126 µM | ≤ 0.1 nM |  |  |
| Cc1ccc(C(=O)N[C@@H](Cc2ccccc2)[C@H](O)C(=O)N2CSC(C)(C)[C@H]2C(=O)NCc2cccs2)c(C)c1O | 0.332 µM | 0.39 nM |  |  |
| Cc1ccc(C(=O)N[C@@H](Cc2ccccc2)[C@H](O)C(=O)N2CSC(C)(C)[C@H]2C(=O)NCc2ccco2)c(C)c1O | 0.488 µM | 2 nM |  |  |
| Cc1ccccc1CCC(=O)[C@H]1N(C(=O)[C@@H](O)[C@H](Cc2ccccc2)NC(=O)O[C@H]2CCOC2)CSC1(C)C | 0.573 µM | 0.76 nM |  |  |
| CC(=O)Oc1cccc(C(=O)N[C@@H](CSc2ccccc2)[C@H](O)CN2C[C@H]3CCCC[C@H]3C[C@H]2C(=O)NCc2ccccc2C)c1C | 0.672 µM | 109 nM |  |  |
| Cc1ccccc1CNC(=O)[C@@H]1C[C@@H]2CCCC[C@@H]2CN1C[C@@H](O)[C@H](CSc1ccccc1)NC(=O)c1cccc(O)c1C | 0.901 µM | 6.4 nM |  |  |
| CC(=O)C(=O)N[C@@H](Cc1ccccc1)[C@H](O)C(=O)N1CSC(C)(C)[C@H]1C(=O)NCc1ccccc1C | ≥ 1 µM | 4.7 nM |  |  |
| Cc1ccccc1CNC(=O)[C@H]1N(C(=O)[C@@H](O)[C@H](Cc2ccccc2)NC(=O)CBr)CSC1(C)C | ≥ 1 µM | 0.78 nM |  |  |
| Cc1cccc(C)c1OCC(=O)N[C@@H](Cc1ccccc1)[C@H](O)C(=O)N1CSC(C)(C)[C@H]1C(=O)NC[C@H]1CCCO1 | ≥ 1 µM | 4.2 nM |  |  |
| CCN1CCc2c(C(=O)N[C@@H](Cc3ccccc3)[C@H](O)C(=O)N3CSC(C)(C)[C@H]3C(=O)NCc3ccccc3C)cccc21 | 1.01 µM | 6.7 nM |  |  |
| Cc1ccccc1CNC(=O)[C@H]1N(C(=O)[C@@H](O)[C@H](Cc2ccccc2)NC(=O)COc2c(C)cc(Cl)cc2C)CSC1(C)C | 1.11 µM | 0.38 nM |  |  |
| Cc1ccc(C(=O)N[C@@H](Cc2ccccc2)[C@H](O)C(=O)N2CSC(C)(C)C2C(=O)N[C@@H]2C=CCCC2)c(C)c1O (stereo partly drawn) | 1.16 µM | 0.13 nM |  |  |
| Cc1c(O)cccc1C(=O)N[C@@H](Cc1ccccc1)[C@H](O)C(=O)N1CSC(C)(C)[C@H]1C(=O)N1CCc2ccccc2C1 | 1.18 µM | 9 nM |  |  |
| CC1(C)SCN(C(=O)[C@@H](O)[C@H](Cc2ccccc2)NC(=O)[C@@H]2CCCO2)[C@@H]1C(=O)N[C@H]1CCCc2ccccc21 | 1.19 µM | 4.3 nM |  |  |
| Cc1ccccc1CNC(=O)[C@H]1N(C(=O)[C@@H](O)C(Cc2ccccc2)NC(=O)CNc2c(C)cccc2C)CSC1(C)C (stereo partly drawn) | 1.22 µM | 2.3 nM |  |  |
| Cc1c(O)cccc1C(=O)N[C@@H](Cc1ccccc1)[C@H](O)C(=O)N1CSC(C)(C)[C@H]1C(=O)NC1CCC(C(C)(C)C)CC1 (stereo partly drawn) | 1.23 µM | 26 nM |  |  |
| CC1(C)SCN(C(=O)[C@@H](O)[C@H](Cc2ccccc2)NC(=O)CSc2nc[nH]n2)[C@@H]1C(=O)N[C@H]1CCc2ccccc21 | 1.23 µM | 3.9 nM |  |  |

| Structure (SMILES) | EC50 [1, 3] | Ki ([2]; Ki, unit inferred) | EC50 ([1]; Human immunodeficiency virus 1, NL43, read-out: Ave CPE EC50) | Ki ([2]; Ave. Ki (nM), RET assay, Q7S enzyme, Morrison tight binding fit) |
| --- | --- | --- | --- | --- |
| CC1(C)SCN(C(=O)[C@@H](O)[C@H](Cc2ccccc2)NC(=O)[C@@H]2CCCO2)[C@@H]1C(=O)N[C@H]1CCOc2ccccc21 | 1.25 µM | 7.5 nM |  |  |
| CC1(C)SCN(C(=O)[C@@H](O)[C@H](Cc2ccccc2)NC(=O)CSc2nc[nH]n2)[C@@H]1C(=O)N[C@@H]1C=CCCC1 | 1.28 µM | 6.1 nM |  |  |
| Cc1ccccc1CNC(=O)[C@H]1N(C(=O)[C@@H](O)[C@H](Cc2ccccc2)NC(=O)OC(C)(C)C)CSC1(C)C | 1.29 µM | 3 nM |  |  |
| Cc1c(O)cccc1C(=O)N[C@@H](Cc1ccccc1)[C@H](O)C(=O)N1CSC(C)(C)[C@H]1C(=O)N[C@H]1CC1c1ccccc1 (stereo partly drawn) | 1.33 µM | 17.2 nM |  |  |
| C#CCOC(=O)N[C@@H](Cc1ccccc1)[C@H](O)C(=O)N1CSC(C)(C)[C@H]1C(=O)NCCC | 1.35 µM | 4.8 nM |  |  |
| Cc1ccccc1CNC(=O)[C@H]1N(C(=O)[C@@H](O)[C@H](Cc2ccccc2)NC(=O)OCCCl)CSC1(C)C | 1.43 µM | 0.44 nM |  |  |
| Cc1cccc(C)c1OCC(=O)N[C@@H](Cc1ccccc1)[C@H](O)C(=O)N1CSC(C)(C)[C@H]1C(=O)NCc1ccccc1Cl | 1.54 µM | ≤ 0.1 nM |  |  |
| Cc1ccccc1CNC(=O)C1N(C(=O)[C@@H](O)[C@H](Cc2ccccc2)NC(=O)CSc2nccs2)CSC1(C)C (stereo partly drawn) | 1.55 µM | 6.9 nM |  |  |
| CCCOC(=O)N[C@@H](Cc1ccccc1)[C@H](O)C(=O)N1CSC(C)(C)[C@H]1C(=O)NCc1ccccc1C | 1.55 µM | 1.1 nM |  |  |
| CC1(C)SCN(C(=O)[C@@H](O)[C@H](Cc2ccccc2)NC(=O)O[C@H]2CCOC2)[C@@H]1C(=O)N[C@@H]1CCOc2ccccc21 | 1.55 µM | 3.7 nM |  |  |
| Cc1ccccc1CNC(=O)[C@H]1N(C(=O)[C@@H](O)[C@H](Cc2ccccc2)NC(=O)COc2ccccc2C)CSC1(C)C | 1.56 µM | 0.89 nM |  |  |
| CCOC(=O)N[C@@H](Cc1ccccc1)[C@H](O)C(=O)N1CSC(C)(C)[C@H]1C(=O)NCc1ccccc1C | 1.64 µM | 0.88 nM |  |  |
| CCCCOC(=O)N[C@@H](Cc1ccccc1)[C@H](O)C(=O)N1CSC(C)(C)C1C(=O)NCc1ccccc1C (stereo partly drawn) | 1.76 µM | 7.6 nM |  |  |
| Cc1cccc(C)c1OCC(=O)N[C@@H](Cc1ccccc1)[C@H](O)C(=O)N1CSC(C)(C)[C@H]1C(=O)NCc1c(F)cccc1F | 1.88 µM | 0.32 nM |  |  |
| Cc1ccccc1CNC(=O)[C@H]1C2CCC(C2)N1C(=O)[C@@H](O)[C@H](Cc1ccccc1)NC(=O)c1cccc(O)c1C (stereo partly drawn) | 4 µM | 18.4 nM |  |  |
| Cc1ccccc1CNC(=O)[C@H]1N(C(=O)[C@@H](O)[C@H](Cc2ccccc2)NC(=O)OCc2ccccc2)CSC1(C)C | 4.22 µM | 1.4 nM |  |  |
| Cc1ccccc1CNC(=O)[C@@H]1CCCCN1C(=O)[C@@H](O)[C@H](Cc1ccccc1)NC(=O)c1cccc(O)c1C | 5.87 µM | 51.7 nM |  |  |
| COc1cc2c(cc1OC)CN(C(=O)[C@H]1N(C(=O)[C@@H](O)[C@H](Cc3ccccc3)NC(=O)c3cccc(O)c3C)CSC1(C)C)CC2 | ≥ 10 µM | 46 nM |  |  |
| Cc1c(O)cccc1C(=O)N[C@@H](Cc1ccccc1)[C@H](O)C(=O)N1CSC(C)(C)[C@H]1C(=O)NC1CC1c1ccccc1 (mixture of isomers) [Example A28, (R)-3-((2S,3S)-2-Hydroxy-3-{[1-(3-hydroxy-2-methyl-phenyl)-methanoyl]-amino}-4-phenyl-butanoyl)-5,5-dimethyl-thiazolidine-4-carboxylic acid (2-phenyl-cyclopropyl)-amide] |  |  | 0.327 µM | 3.4 nM |

Reference: US7094909B2, “HIV protease inhibitors, compositions containing the same, their pharmaceutical uses and materials for their synthesis” (priority 2001, dated 2006)
